Experimental data taken from US20230031406A1, “COMPOUNDS AND COMPOSITIONS FOR TREATING CONDITIONS ASSOCIATED WITH NLRP ACTIVITY” (Novartis AG, priority 2018, published 2023).

Assays:
[1] = system: PMA-differentiated THP-1 cells; experiment: IL-1β production in PMA-differentiated THP-1 cells stimulated with gramicidin (hTHP-1 assay containing 2% fetal bovine serum; Procedures 1 and 2); assay type: cell-based, human; conditions: Table B5
Procedure, shortened: (§1)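 IL-1β release from PMA-differentiated THP-1 macrophage-like cells was triggered by 5 μM gramicidin for 2 h after 1 h compound exposure, then measured by HTRF.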

[2] = system: PMA-differentiated THP-1 cells; experiment: hTHP-1 assay containing 10% fetal bovine serum (IL-1β production, Tables B5 and B6); assay type: cell-based, human
Procedure, shortened: as §1

[3] = Homo sapiens, THP-1, read-out: hTHP-1 IC50 in 2% FBS, hTHP-1 assay containing 2% fetal bovine serum
[4] = Homo sapiens, THP-1, read-out: hTHP-1 IC50 in 10% FBS, hTHP-1 assay containing 10% fetal bovine serum, Table B5
[5] = Homo sapiens, THP-1, read-out: hTHP-1 IC50 in 10% FBS, hTHP-1 assay containing 10% fetal bovine serum, Table B6
[6] = read-out: hTHP-1 IC50 in 10% FBS, hTHP-1 assay containing 10% fetal bovine serum, Table B6

CCn1cc(F)c(S(N)(=O)=NC(=O)Nc2c(C)c(C(F)(F)F)nc3c2C(C)CC3)n1 (single isomer, unassigned) [Compound 1100c, (S, R) or (S, S)-N′-((3,5-dimethyl-2-(trifluoromethyl)-6,7-dihydro-5H-cyclopenta[b]pyridin-4-yl)carbamoyl)-1-ethyl-4-fluoro-1H-pyrazole-3-sulfonimidamide]
IC50 ([1]; read-out: hTHP-1 IC50 in 2% FBS, hTHP-1 assay containing 2% fetal bovine serum, listed as 819): 5000 to 30000 nM | IC50 ([2]; read-out: hTHP-1 IC50 in 10% FBS, hTHP-1 assay containing 10% fetal bovine serum, Table B5, listed as 819): 5000 to 30000 nM

CC(C)n1cc(F)c(S(N)(=O)=NC(=O)Nc2c3c(nc4c2CCC42CC2)CCC3)n1 (centres unmarked) [Compound 1102, 4-Fluoro-1-isopropyl-N′-((1′,5′,6′,7′-tetrahydro-2′H-spiro [cyclopropane-1,3′-dicyclopenta[b,e]pyridin]-8′-yl)carbamoyl)-1H-pyrazole-3-sulfonimidamide]
IC50 [1, 3]: 8 to 40 nM | IC50 [2, 4]: 8 to 40 nM

CC(C)n1cc(F)c(S(N)(=O)=NC(=O)Nc2c3c(nc(C4CC4)c2C2CC2)CCC3)n1 (centres unmarked) [Compound 1103, N′-((2,3-dicyclopropyl-6,7-dihydro-5H-cyclopenta[b]pyridin-4-yl)carbamoyl)-4-fluoro-1-isopropyl-1H-pyrazole-3-sulfonimidamide]
IC50 [1, 3]: 40 to 200 nM | IC50 [2, 4]: 40 to 200 nM

CCn1cc(F)c(S(N)(=O)=NC(=O)Nc2c(C)c(C(F)(F)F)nc3c2C(C)CC3)n1 (centres unmarked) [Compound 1100, N′-((3,5-dimethyl-2-(trifluoromethyl)-6,7-dihydro-5H-cyclopenta[b]pyridin-4-yl)carbamoyl)-1-ethyl-4-fluoro-1H-pyrazole-3-sulfonimidamide]
IC50 ([1]; read-out: hTHP-1 IC50 in 2% FBS, hTHP-1 assay containing 2% fetal bovine serum, listed as 795): 1000 to 5000 nM | IC50 ([2]; read-out: hTHP-1 IC50 in 10% FBS, hTHP-1 assay containing 10% fetal bovine serum, Table B5, listed as 795): 1000 to 5000 nM

CCn1cc(F)c(S(N)(=O)=NC(=O)Nc2c(C)c(C(F)(F)F)nc3c2CC(C)C3)n1 (centres unmarked) [Compound 1101, N′-((3,6-dimethyl-2-(trifluoromethyl)-6,7-dihydro-5H-cyclopenta[b]pyridin-4-yl)carbamoyl)-1-ethyl-4-fluoro-1H-pyrazole-3-sulfonimidamide]
IC50 ([1]; read-out: hTHP-1 IC50 in 2% FBS, hTHP-1 assay containing 2% fetal bovine serum, listed as 796): 8 to 40 nM | IC50 ([2]; read-out: hTHP-1 IC50 in 10% FBS, hTHP-1 assay containing 10% fetal bovine serum, Table B5, listed as 796): 200 to 1000 nM

CC(C)n1cc(F)c(S(N)(=O)=NC(=O)Nc2c3c(nc4c2CCC42CC2)CCC3)n1 (single isomer, unassigned) [Compound 1102b, (S) or (R)-4-Fluoro-1-isopropyl-N′-((1′,5′,6′,7′-tetrahydro-2′H-spiro [cyclopropane-1,3′-dicyclopenta[b,e]pyridin]-8′-yl)carbamoyl)-1H-pyrazole-3-sulfonimidamide]
IC50 ([1]; read-out: hTHP-1 IC50 in 2% FBS, hTHP-1 assay containing 2% fetal bovine serum, listed as 814): 1000 to 5000 nM | IC50 ([2]; read-out: hTHP-1 IC50 in 10% FBS, hTHP-1 assay containing 10% fetal bovine serum, Table B5, listed as 814): 1000 to 5000 nM

CCn1cc(F)c([S@](N)(=O)=NC(=O)Nc2c(C)c(C(F)(F)F)nc3c2[C@@H](C)CC3)n1 (single isomer, unassigned) [Compound 1100b, (R, S) or (R, R)-N′-((3,5-dimethyl-2-(trifluoromethyl)-6,7-dihydro-5H-cyclopenta[b]pyridin-4-yl)carbamoyl)-1-ethyl-4-fluoro-1H-pyrazole-3-sulfonimidamide]
IC50 [1, 3]: 200 to 1000 nM | IC50 [2, 4]: 40 to 200 nM

CC(C)n1cc(F)c(S(N)(=O)=NC(=O)Nc2c3c(nc(C4CC4)c2C2CC2)CCC3)n1 (single isomer, unassigned) [Compound 1103a, (R) or (S)-N′-((2,3-dicyclopropyl-6,7-dihydro-5H-cyclopenta[b]pyridin-4-yl)carbamoyl)-4-fluoro-1-isopropyl-1H-pyrazole-3-sulfonimidamide]
IC50 ([1]; read-out: hTHP-1 IC50 in 2% FBS, hTHP-1 assay containing 2% fetal bovine serum, listed as 815): 40 to 200 nM | IC50 ([2]; read-out: hTHP-1 IC50 in 10% FBS, hTHP-1 assay containing 10% fetal bovine serum, Table B5, listed as 815): 8 to 40 nM

CCn1cc(F)c(S(N)(=O)=NC(=O)Nc2c(C)c(C(F)(F)F)nc3c2CC(C)C3)n1 (single isomer, unassigned) [Compound 1101c, (S, S) or (S, R)-N′-((3,6-dimethyl-2-(trifluoromethyl)-6,7-dihydro-5H-cyclopenta[b]pyridin-4-yl)carbamoyl)-1-ethyl-4-fluoro-1H-pyrazole-3-sulfonimidamide]
IC50 ([1]; read-out: hTHP-1 IC50 in 2% FBS, hTHP-1 assay containing 2% fetal bovine serum, listed as 823): 5000 to 30000 nM | IC50 ([2]; read-out: hTHP-1 IC50 in 10% FBS, hTHP-1 assay containing 10% fetal bovine serum, Table B5, listed as 823): 5000 to 30000 nM

NS(=O)(=NC(=O)Nc1c2c(nc3c1CCC3)CCC2)c1nn(C2CC2)cc1F (centres unmarked) [Example 858, 1-Cyclopropyl-4-fluoro-N′-((1,2,3,5,6,7-hexahydrodicyclopenta[b,e]pyridin-8-yl)carbamoyl)-1H-pyrazole-3-sulfonimidamide]
IC50 [2, 5]: 40 to 200 nM

CC(C)(O)c1csc(S(N)(=O)=NC(=O)Nc2c3c(nc(C(F)(F)F)c2C2CC2)CCC3)c1F (centres unmarked) [Compound 1105, N′-((3-cyclopropyl-2-(trifluoromethyl)-6,7-dihydro-5H-cyclopenta [b]pyridin-4-yl)carbamoyl)-3-fluoro-4-(2-hydroxypropan-2-yl) thiophene-2-sulfonimidamide]
IC50 [2, 4]: 40 to 200 nM

C[C@@H]1CCc2c1nc1c(c2NC(=O)N=S(N)(=O)c2nn(C3CC3)cc2F)CCC1 (single isomer, unassigned) [Example 868, (S) or (R)-1-cyclopropyl-4-fluoro-N′-(((R)-3-methyl-1,2,3,5,6,7-hexahydrodicyclopenta[b,e]pyridin-8-yl)carbamoyl)-1H-pyrazole-3-sulfonimidamide]
IC50 [2, 6]: 200 to 1000 nM

C[C@@H]1CCc2c1nc1c(c2NC(=O)N=S(N)(=O)c2nn(C3CC3)cc2F)CCC1 (single isomer, unassigned) [Example 867, (R) or (S)-1-cyclopropyl-4-fluoro-N′-(((R)-3-methyl-1,2,3,5,6,7-hexahydrodicyclopenta[b,e]pyridin-8-yl)carbamoyl)-1H-pyrazole-3-sulfonimidamide]
IC50 [2, 6]: < 8 nM

CC(C)(O)c1csc(S(N)(=O)=NC(=O)Nc2c3c(nc(C4CC4)c2C2CC2)CCC3)c1F (centres unmarked) [Compound 1006, N′-((2,3-dicyclopropyl-6,7-dihydro-5H-cyclopenta[b]pyridin-4-yl)-carbamoyl)-3-fluoro-4-(2-hydroxypropan-2-yl)thiophene-2-sulfonimidamide]
IC50 [2, 4]: 40 to 200 nM

Cc1nc2c(c(NC(=O)N=S(N)(=O)c3scc(C(C)(C)O)c3F)c1-c1ccccc1)CCC2 (single isomer, unassigned) [Compound 1110b, (R) or (S)-3-fluoro-4-(2-hydroxypropan-2-yl)-N′-((2-methyl-3-phenyl-6,7-dihydro-5H-cyclopenta[b]pyridin-4-yl)carbamoyl)thiophene-2-sulfonimidamide]
IC50 ([2]; read-out: hTHP-1 IC50 in 10% FBS, hTHP-1 assay containing 10% fetal bovine serum, Table B5, listed as 845): < 8 nM

Cc1c(C(F)(F)F)nc2c(c1NC(=O)N=S(N)(=O)c1nn(C3CC3)cc1F)CCC2 (centres unmarked) [Example 854, 1-Cyclopropyl-4-fluoro-N′-((3-methyl-2-(trifluoromethyl)-6,7-dihydro-5H-cyclopenta[b]pyridin-4-yl)carbamoyl)-1H-pyrazole-3-sulfonimidamide]
IC50 [2, 5]: 40 to 200 nM

CC(C)(O)c1csc(S(N)(=O)=NC(=O)Nc2c3c(nc4c2CCC4)CCC3)c1F (single isomer, unassigned) [Compound 1107a, (R) or (S)-3-fluoro-N′-((1,2,3,5,6,7-hexahydrodicyclopenta[b,e]pyridin-8-yl)carbamoyl)-4-(2-hydroxypropan-2-yl)thiophene-2-sulfonimidamide]
IC50 ([2]; read-out: hTHP-1 IC50 in 10% FBS, hTHP-1 assay containing 10% fetal bovine serum, Table B5, listed as 838): 40 to 200 nM

C[C@@H]1CCc2c1nc1c(c2NC(=O)N=S(N)(=O)c2scc(C(C)(C)O)c2F)CCC1 (single isomer, unassigned) [Compound 1109b, (S) or (R)-3-fluoro-4-(2-hydroxypropan-2-yl)-N′-(((R)-3-methyl-1,2,3,5,6,7-hexahydrodicyclopenta [b,e]pyridin-8-yl)-carbamoyl) thiophene-2-sulfonimidamide]
IC50 ([2]; read-out: hTHP-1 IC50 in 10% FBS, hTHP-1 assay containing 10% fetal bovine serum, Table B5, listed as 843): 200 to 1000 nM

C[C@@H](O)Cn1cc(F)c(S(N)(=O)=NC(=O)Nc2c3c(nc4c2CCC42CC2)CCC3)n1 (stereo partly drawn) [Compound 1119, 4-Fluoro-1-((R)-2-hydroxypropyl)-N′-((1′,5′,6′,7′-tetrahydro-2′H-spiro[cyclopropane-1,3′-dicyclopenta[b,e]pyridin]-8′-yl)carbamoyl)-1H-pyrazole-3-sulfonimidamide]
IC50 [2, 4]: 8 to 40 nM

Cc1c(C(F)(F)F)nc2c(c1NC(=O)N=S(N)(=O)c1nn(C(C)(F)F)cc1F)CCC2 (single isomer, unassigned) [Compound 1004b, (S) or (R)-1-(1,1-Difluoroethyl)-4-fluoro-N′-((3-methyl-2-(trifluoromethyl)-6,7-dihydro-5H-cyclopenta[b]pyridin-4-yl)carbamoyl)-1H-pyrazole-3-sulfonimidamide]
IC50 ([2]; read-out: hTHP-1 IC50 in 10% FBS, hTHP-1 assay containing 10% fetal bovine serum, Table B5, listed as 833): 1000 to 5000 nM
